Assay results reported in patent publication US20230087766A1, “METHODS OF REACTIVATING LATENT HUMAN IMMUNODEFICIENCY VIRUS AND RELATED COMPOSITIONS” (priority 2017, published 2023).

How the values were obtained:
Type in all cases: cell-based
[1] = test system: latent HIV (HIV LTR-driven transcription) in J-Lat A1 cells; conditions: for reactivation of latent HIV by epigenetic modifiers: 30 mM Na-Cro, 500 nM SAHA, 2 μM GSK343 or 5 μM AZA-dc; for reactivation of latent HIV by epigenetic modifiers / increase in reactivation of latent HIV in combination with Na-Cro as compared to single treatment: RT-qPCR; for increase in reactivation of latent HIV in combination with Na-Cro as compared to single treatment: J-Lat A1 cells pretreated with Na-Cro, then the LRA added
Protocol: (§1) Cell culture: J-Lat Al cells (derived from Jurkat cells harboring HIV LTR-Tat-GFP gene) and U1 cells (promonocytic cell line harboring one copy of HIV genome with defective tat gene) were obtained from NIH AIDS Reagent Program and cultured at 37° C. with 5% CO2 in RPM11640 medium containing 10% FBS and 1% penicillin-streptomycin as previously described (see G. Jiang, et al. PLoS Pathogens 11, e1005066 (2015)).
(§2) For inhibiting ACSS2 and crotonylation, cells were pretreated with ACSS2 inhibitor, AR12 (SELLECK CHEMICALS™, Houston, Tex.), for 30 minutes, followed by Na-Cro treatment for 4 or 18 hours.
(§3) Real-Time PCR Analysis: HIV gene expression was measured using real-time PCR in J-Lat Al cells treated with LRAs. Total nucleic acid was extracted using RNEASY™ Kit, genomic DNA digested using DNase I and total RNA reverse transcribed using Superscript III to synthesize cDNA. […] […] TAMRA-3′ (SEQ ID NO:3).

[2] = test system: HIV LTR in J-Lat A1 cells; experiment: Chromatin immunoprecipitation (ChIP) at the HIV LTR; conditions: pretreatment with AR12, then Na-Cro
Description: FIG. 2 is a series of images and graphs showing that histone crotonylation by sodium crotonate addition re-programs histone tails at the HIV LTR. Panel A illustrates that Na-Cro addition increased global expression of H3K4Cro, H3K4Ac, and H3K18Ac while decreasing H3K27Me3. Panel B illustrates expression of transcription factors after Na-Cro addition in J-Lat Al cells. Panels C-E illustrate that Na-Cro addition re-programmed histone tails at the HIV LTR. Chromatin immunoprecipitation (ChIP) assay was performed by using anti-H3K4Cr, anti-H3K4Ac, and anti-H3K27Me3 antibodies after J-Lat Al cells were treated with 30 mM Na-Cro for 4 hours. PCR primers were specific for the HIV LTR region.
(§4) FIG. 7 is a series of graphs showing that induction of de-crotonylation of histone tail at HIV LTR is independent of SIRTs. Panel A illustrates that J-Lat Al cells were pre-treated with either 50 μM RSV or 1 mM NAM, followed by 30 mM Na-Cro addition to reactivate latent HIV expression. Untreated controls were compared with positive controls involving individual treatment of Na-Cro, RSV, or NAM. *, p<0.05; **, p<0.01 compared with control treatment. #, p<0.05 compared with Na-Cro treatment. Panel B illustrates that gene expression of sirt1 or sirt3 was measured by RT-qPCR in J-Lat Al cells treated with either 25 μM RSV, 50 μM RSV, or 1 mM NAM. *, p<0.05 and **, p<0.01 compared with control treatment. Panels C and D illustrate that histone crotonylation induces binding of SIRT3 and SIRT1 at the HIV LTR. J-Lat Al cells were treated with 30 mM Na-Cro for 4 hours and analyzed by ChIP assays using anti-SIRT1 or anti-SIRT3 antibodies. *, p<0.05 compared with control treatment.
Chromatin Immunoprecipitation (ChIP): J-Lat Al cells (2.5 to 5 million) were utilized in ChIP assays with anti-H3K18Ac, anti-H3K4Cr, anti-H3K27Me3, anti-H3K4Ac, anti-SIRT3 (CELL SIGNALING TECHNOLOGY®), and anti-SIRT1 (CELL SIGNALING TECHNOLOGY®) antibodies. ChIP assays were performed using […]® Kit from CELL SIGNALING TECHNOLOGY® as per the manufacturer's recommendations. Samples were cross-linked using formaldehyde and 150-1000 bp fragments were made using Micrococcal Nuclease digestion and 7 cycles of 30 seconds on/30 seconds off sonication. Antibodies were used to probe respective proteins. Purification of DNA was performed using the […]® Kit Protocol. Purified ChIP DNA was used in SYBR® Green qPCR using ChIP primers specific for HIV LTR.

[3] = test system: latent HIV in primary CD4+ T cells from HIV-infected patients under suppressive ART; experiment: HIV transcription by ddPCR in primary CD4+ T cells from HIV-infected patients; conditions: 6 hours
Protocol: Panels A-C illustrate that primary CD4+ T cells were treated with […] PMA 2 plus 2 μg/ml ionomycin, 12 nM PEP005, 40 mM Na-Cro, or 12 nM PEP005 combined with 40 mM Na-Cro for 6 hours. Viral transcription from total RNA was analyzed by RT-ddPCR with primers targeting initiation (TAR region) (see panel A), elongation (long LTR) (see panel B), or full transcription (poly A region) (see panel C) of the HIV genome. Panel D illustrates a working model of epigenetic regulation of HIV latency/transcription by histone crotonylation.
To validate this finding in the ex vivo primary CD4+ T cells from patients the peripheral blood samples from 6 HIV-infected patients under suppressive ART were obtained. They had undetectable plasma viral load (<20 copies/ml plasma) and >400 CD4+ T cell number per […] (see Table 1). Primary CD4+ T cells were treated with PMA/Ionomycin, PEP005, Na-Cro, or PEP005 in combination with Na-Cro for 6 hours. HIV transcription following reactivation was measured by digital droplet PCR (ddPCR) targeting TAR region (initiation), long LTR region (elongation), or Poly A region (full transcription) of HIV genome (see G. Jiang, et al. PLoS pathogens 11, e1005066 (2015); P. Kaiser, et al. Journal of virological methods 242, 1-8 (2017); and L. Shan, et al. Journal of Virology 87, 6521-6525 (2013)).
Primary CD4+ T Cell Isolation, Treatment, and Digital Droplet PCR Assays: Peripheral blood samples were obtained from HIV-infected individuals (age ranging from 46-62 years old) on suppressive ART for >8 years (n=6). The plasma viral loads were below the detective level (<20 copies/ml plasma) and the average CD4+ T cell number was 664.4±180.5 cells/ml. The primary CD4+ T cells were isolated using the EASYSEP™ kit ([…]™ Technologies Inc., Vancouver, BC, Canada) as previously described (see G. Jiang, et al. PLoS pathogens 11, el 005066 (2015) and G. Jiang, et al. AIDS 28, 1555-1566 (2014)). The purified CD4+ T cells were plated at a density of 0.5-1×10^6 cells and treated with Control, 200 ng/ml PMA plus 2 μM lonomycin, 12 nM PEP005, 40 mM Na-Cro, or 12 nM PEP005 plus 40 mM Na-Cro for 6 hours. Cell pellets were collected for RNA isolation. Initiation, elongation, or full transcription of HIV was analyzed with ddPCR assays as reported before (see G. Jiang, et al. PLoS pathogens 11, e1005066 (2015); P. Kaiser, et al. Journal of virological methods 242, 1-8 (2017); and L. Shan, et al. Journal of virology 87, 6521-6525 (2013)).

sirt3 = sirt3 gene expression by RT-qPCR in J-Lat A1 cells; conditions: 25 μM or 50 μM RSV
Protocol: as §4

[4] = test system: latent HIV in resting CD4+ T cells from HIV-infected individuals under ART; experiment: Quantitative Viral Outgrowth Assay (QVOA), p24 ELISA; conditions: resting CD4+ T cells from 5 HIV-infected individuals under ART; ex vivo
Protocol: It was tested whether the histone crotonylation inducer, sodium crotonate, can reactivate latent HIV reservoirs from a patient under ART. Peripheral blood samples were obtained from 5 HIV-infected individuals with undetectable plasma viral loads and higher CD4+ T cell numbers (see Table 1). One million resting CD4+ T cells were treated with IL-2, PHA+IL-2, or IL-2+Na-Cro, and HIV p24 production was measured by QVOA using p24 ELISA as a measure of HIV reactivation.
Quantitative Viral Outgrowth Assay: Peripheral blood mononuclear cells (PBMC) were obtained from HIV-infected individuals on suppressive ART (n=5) by continuous-flow leukopheresis. Isolation of resting CD4+ T cells and quantification of replication competent virus was performed as previously described (see S. Dandekar, et al. Current HIV/AIDS reports 4, 10-15 (2007)). […] Cultures were scored as positive if p24 was detected at day 15 and was increased in concentration at day 19. […]

latent HIV in U1 cells = experiment: Reactivation of latent HIV in U1 cells by RT-qPCR
Protocol: as §1, §2, §3

[5] = primary CD4+ T cells of 6 patients, 40 mM Na-Cro or 12 nM PEP005, ddPCR

SMILES: NCC(=O)Nc1ccc(-n2nc(C(F)(F)F)cc2-c2ccc3c(ccc4ccccc43)c2)cc1 [AR12, reference compound]
- decrease in latent HIV reactivation by Na-Cro ([1]; pretreatment with AR12 for 30 minutes, then Na-Cro): > 60%
- histone crotonylation at HIV LTR [2]: markedly dampened

SMILES: Nc1ncn([C@H]2C[C@H](O)[C@@H](CO)O2)c(=O)n1 [AZA-dC]
- reactivation of latent HIV by epigenetic modifiers ([1]; J-Lat A1 cells): minimally reactivated latent HIV

SMILES: CCCc1cc(C)[nH]c(=O)c1CNC(=O)c1cc(-c2ccnc(N3CCN(C)CC3)c2)cc2c1cnn2C(C)C [GSK343]
- synergistic effect on HIV reactivation in combination with Na-Cro ([1]; J-Lat A1 cells): did not show any synergistic effect
- reactivation of latent HIV by epigenetic modifiers ([1]; J-Lat A1 cells): minimally reactivated latent HIV

SMILES: Cc1sc2c(c1C)C(c1ccc(Cl)cc1)=N[C@@H](CC(=O)OC(C)(C)C)c1nnc(C)n1-2 [JQ1]
- increase in reactivation of latent HIV in combination with Na-Cro as compared to single treatment [1]: 1.8 fold

SMILES: NC(=O)c1cccnc1 [NAM, nicotinamide]
- viral reactivation after pretreatment ([1]; J-Lat A1 cells, 1 mM NAM pretreatment then 30 mM Na-Cro): less than 4 fold

SMILES: C/C=C(/C)C(=O)O[C@H]1C(C)=C[C@]23C(=O)[C@@H](C=C(CO)[C@@H](O)[C@]12O)[C@H]1[C@@H](C[C@H]3C)C1(C)C [PEP005, ingenol-3-angelate]
- increase in reactivation of latent HIV in combination with Na-Cro as compared to single treatment [1]: 8 fold
- elongation of HIV transcripts (long LTR), patients responding [3, 5]: 5 of 6 patient samples
- full-length transcription of HIV (poly A region), patients responding [3, 5]: 5 of 6 patient samples
- initiation of HIV transcription (TAR region), patients responding [3, 5]: all six patients
- reactivation of latent HIV, combination of Na-Cro with PEP005 ([3]; primary CD4+ T cells, 12 nM PEP005 combined with 40 mM Na-Cro, also higher than PMA/Ionomycin): greater reactivation of latent HIV than either agent alone

SMILES: Oc1ccc(C=Cc2cc(O)cc(O)c2)cc1 [RSV, Resveratrol]
- crotonyl-CoA-mediated latent HIV reactivation after pretreatment ([1]; J-Lat A1 cells, 50 μM RSV pretreatment then 30 mM Na-Cro, compared to crotonyl-CoA alone): 27 fold
- increase in expression of sirt3 (sirt3): two to three

SMILES: O=C(CCCCCCC(=O)Nc1ccccc1)NO [SAHA, suberoylanilide hydroxamic acid]
- replication-competent HIV recovered (HIV reactivation, QVOA) [4]: able to flush out the latent HIV in these patient cells except for one patient
- increase in reactivation of latent HIV in combination with Na-Cro as compared to single treatment [1]: 2.0 fold
- HIV reactivation, pretreatment with SAHA followed by Na-Cro addition ([1]; J-Lat A1 cells, 250 nM SAHA then 40 mM Na-Cro overnight): abolished the combination effect
- reactivation of latent HIV by epigenetic modifiers ([1]; J-Lat A1 cells): comparable capacity to reactivate latent HIV
- HIV reactivation, pretreatment with SAHA followed by Na-Cro addition (latent HIV in U1 cells; 500 nM SAHA then 40 mM Na-Cro): abolished the combination effect
- HIV reactivation, pretreatment with Na-Cro then SAHA, compared with SAHA alone (latent HIV in U1 cells; 40 mM Na-Cro then 500 nM SAHA, overnight, real-time PCR): enhanced SAHA-reactivation of latent HIV

SMILES: CCC/C=C/C=C/C(=O)O[C@H]1/C(=C/C(=O)OC)C[C@H]2C[C@H]([C@@H](C)O)OC(=O)C[C@H](O)C[C@@H]3C[C@H](OC(C)=O)C(C)(C)[C@](O)(C[C@@H]4C/C(=C/C(=O)OC)C[C@H](/C=C/C(C)(C)[C@]1(O)O2)O4)O3 [bryostatin-1]
- increase in reactivation of latent HIV in combination with Na-Cro as compared to single treatment [1]: 3.3 fold
